Key:
HSTS26T tumors = assay: Protein levels in homogenized tumors (ELISA); assay type: in vivo, mice
Source text: Tumors were excised after two weeks of treatment, homogenized and analyzed for total and activated TGF-β1 levels by ELISA.

E0771 tumors = assay: Hypoxic fraction by pimonidazole staining; set-up: species or system mice; settings: mouse, in vivo
Protocol: Losartan decreases the hypoxic fraction in E0771 tumors (P=0.027, Student's t-test) due to the increase in oxygen delivery.
Oxygenation was then studied using phosphorescence quenching microscopy. […] This decrease in tumor hypoxia was confirmed by using pimonidazole staining (FIGS. 29D and 30). To determine if losartan also increases nanomedicine delivery, which is dependent on both vascular supply and penetration across vessel walls into tumor tissue, nanoparticle penetration was measured using intravital multiphoton microscopy. Nanoparticle penetration rates were quantified as transvascular mass flux per unit vascular surface area and transvascular concentration difference, termed as the effective permeability. […] Penetration rates are largely dependent on fluid flow through the viscoelastic and tortuous tumor interstitium, which is a function of interstitial hydraulic conductivity. It was determined that losartan also increases the hydraulic conductivity of E0771 tumors (FIG. 31), likely through its anti-matrix effects, and a mathematical model (Chauhan V P, et al., Nature Nanotechnology. 2012; advance online publication) was used to confirm that this can improve the penetration rate of all sizes of nanomedicines (FIG. 32). Thus, “microenvironmental normalization” with ARBs and ACE-Is increases the delivery of oxygen and all sizes of therapeutics to tumors. […]

4T1 breast tumors = assay: Solid stress (tumor opening technique); set-up: species or system mice; settings: mouse, in vivo
Source text: FIG. 25 is a bar graph showing that angiotensin inhibitors decrease stress in multiple tumor models. Solid stress levels in tumors after angiotensin inhibition using losartan are shown. […] Animal numbers n=10-11 (4T1 stress), n=4-8 (Pan-02 stress).
The mechanism responsible for the increase in tumor vessel perfusion by losartan was investigated. Desmoplasia, high stromal cell and matrix density, is a major contributor to the solid stress accumulation that compresses vessels (Stylianopoulos T, et al., Growth-induced mechanical stress in murine and human tumors: causes, consequences and remedies. under review. 2012). […] Moreover, losartan decreased collagen I concentration, measured based on staining intensity, in E0771 and AK4.4 tumors (FIGS. 24B-24C). […] Next, solid stress in these tumors was measured using recently established technique described in Stylianopoulos T, et al., Growth-induced mechanical stress in murine and human tumors: causes, consequences and remedies. under review. […]
Solid stress: Solid stress was measured using the tumor opening technique as described previously (Stylianopoulos T, et al., Growth-induced mechanical stress in murine and human tumors: causes, consequences and remedies. under review. 2012). […] Subsequently, each tumor was excised, washed with Hanks' Balanced Salt Solution (HBSS) and its three dimensions were measured. […]

[1] = 15 mg/kg/day in drinking water, two weeks

CCCCc1nc(Cl)c(CO)n1Cc1ccc(-c2ccccc2-c2nn[nH]n2)cc1 [losartan]
reduction in TSP-1 (HSTS26T tumors; [1]): 3.5 fold | reduction in active TGF-β1 (HSTS26T tumors; [1]): 4 fold | reduction in collagen 1 (HSTS26T tumors; [1]): two fold reduction | total TGF-β1 levels (HSTS26T tumors; homogenized tumors): did not affect | hypoxic fraction (E0771 tumors): decreases | solid stress (4T1 breast tumors): reduces solid stress

Source: patent US20130287688A1, “NOVEL COMPOSITIONS AND USES OF ANTI-HYPERTENSION AGENTS FOR CANCER THERAPY” (XTUIT PHARMACEUTICALS, INC., priority 2010, published 2013)
